Measurements: US8999974B2, “Acyl piperazine derivatives as TTX-S blockers” (Raqualia Pharma Inc., priority 2010, dated 2015)
pIC50: −log10 of the molar value.

Target: T1, human NaV1.3 (Homo sapiens, UniProt Q9NY46)
T1 construct: expressed in transfected cells; host or cells: HEK293
Assay: FRET assay (EFS, FDSS) on HEK293 cells expressing human NaV1.3 channels
Format: cell-based
Conditions: FRET assay, HEK293 cells expressing human NaV1.3; read-out: IC50 against Nav1.3
Procedure: This screen was used to determine the effects of compounds on human NaV1.3, human Nav1.7, and human Nav1.5 channels, utilising electrical field stimulation (EFS) system in 96-well plate format on FDSS (Hamamatsu Photonics) platform. The change of membrane potential was monitored with FRET dye pair, oxonol (DiSBAC2(3)) and coumarin (CC2-DMPE).
Each HEK293 cells expressing human NaV1.3 channels and HEK293 cells expressing human NaV1.5 channels were grown in T225 flasks, in a 5% CO2 humidified incubator to about 80% confluence. Media composition consisted of Dulbecco's Modified Eagle Medium (high glucose), 10% FCS, 100 units/ml Penicillin, 100 microgram/ml Streptomycin and 500 microgram/ml Geneticine.
Protocol: • Seeded each cell lines (1×10^5 cells/well) into poly-D-lysine coated 96-well plates prior to experimentation. • Incubated at 37° C. in 5% CO2 for 24 hours. • Washed each well with assay buffer (140 mM NaCl, 4.5 mM KCl, 10 mM D-Glucose, 2 mM CaCl2, 1 mM MgCl2, 10 mM HEPES, pH 7.4 adjusted with NaOH) twice. • Added 1st loading solution containing 10 microM CC2-DMPE and 0.06% Pluronic F-127 in assay buffer. • Incubated the plate at room temperature in dark for 1 hour. • Removed 1st loading solution and added 2nd loading solution containing 15 microM DiSBAC2(3), 0.555 mM VABSC-1 and 0.004% Pluronic F-127 in assay buffer. • Placed the plate under the dark at room temperature for 25 minutes. • Added compound solutions into the assay plate. • Set the assay plate in FDSS and placed an EFS device on the plate. • Measured EFS-induced fluorescent response by FDSS.
The data were analyzed and reported as normalized ratios of intensities measured at […]. The process of calculating these ratios was performed as follows:
[formula] This analysis was performed using a computerized specific program designed for FDSS generated data. Fluorescence ratio values were plotted using XLfit to determine an IC50 value for each compound.

T1 sequence (Q9NY46 whole entry): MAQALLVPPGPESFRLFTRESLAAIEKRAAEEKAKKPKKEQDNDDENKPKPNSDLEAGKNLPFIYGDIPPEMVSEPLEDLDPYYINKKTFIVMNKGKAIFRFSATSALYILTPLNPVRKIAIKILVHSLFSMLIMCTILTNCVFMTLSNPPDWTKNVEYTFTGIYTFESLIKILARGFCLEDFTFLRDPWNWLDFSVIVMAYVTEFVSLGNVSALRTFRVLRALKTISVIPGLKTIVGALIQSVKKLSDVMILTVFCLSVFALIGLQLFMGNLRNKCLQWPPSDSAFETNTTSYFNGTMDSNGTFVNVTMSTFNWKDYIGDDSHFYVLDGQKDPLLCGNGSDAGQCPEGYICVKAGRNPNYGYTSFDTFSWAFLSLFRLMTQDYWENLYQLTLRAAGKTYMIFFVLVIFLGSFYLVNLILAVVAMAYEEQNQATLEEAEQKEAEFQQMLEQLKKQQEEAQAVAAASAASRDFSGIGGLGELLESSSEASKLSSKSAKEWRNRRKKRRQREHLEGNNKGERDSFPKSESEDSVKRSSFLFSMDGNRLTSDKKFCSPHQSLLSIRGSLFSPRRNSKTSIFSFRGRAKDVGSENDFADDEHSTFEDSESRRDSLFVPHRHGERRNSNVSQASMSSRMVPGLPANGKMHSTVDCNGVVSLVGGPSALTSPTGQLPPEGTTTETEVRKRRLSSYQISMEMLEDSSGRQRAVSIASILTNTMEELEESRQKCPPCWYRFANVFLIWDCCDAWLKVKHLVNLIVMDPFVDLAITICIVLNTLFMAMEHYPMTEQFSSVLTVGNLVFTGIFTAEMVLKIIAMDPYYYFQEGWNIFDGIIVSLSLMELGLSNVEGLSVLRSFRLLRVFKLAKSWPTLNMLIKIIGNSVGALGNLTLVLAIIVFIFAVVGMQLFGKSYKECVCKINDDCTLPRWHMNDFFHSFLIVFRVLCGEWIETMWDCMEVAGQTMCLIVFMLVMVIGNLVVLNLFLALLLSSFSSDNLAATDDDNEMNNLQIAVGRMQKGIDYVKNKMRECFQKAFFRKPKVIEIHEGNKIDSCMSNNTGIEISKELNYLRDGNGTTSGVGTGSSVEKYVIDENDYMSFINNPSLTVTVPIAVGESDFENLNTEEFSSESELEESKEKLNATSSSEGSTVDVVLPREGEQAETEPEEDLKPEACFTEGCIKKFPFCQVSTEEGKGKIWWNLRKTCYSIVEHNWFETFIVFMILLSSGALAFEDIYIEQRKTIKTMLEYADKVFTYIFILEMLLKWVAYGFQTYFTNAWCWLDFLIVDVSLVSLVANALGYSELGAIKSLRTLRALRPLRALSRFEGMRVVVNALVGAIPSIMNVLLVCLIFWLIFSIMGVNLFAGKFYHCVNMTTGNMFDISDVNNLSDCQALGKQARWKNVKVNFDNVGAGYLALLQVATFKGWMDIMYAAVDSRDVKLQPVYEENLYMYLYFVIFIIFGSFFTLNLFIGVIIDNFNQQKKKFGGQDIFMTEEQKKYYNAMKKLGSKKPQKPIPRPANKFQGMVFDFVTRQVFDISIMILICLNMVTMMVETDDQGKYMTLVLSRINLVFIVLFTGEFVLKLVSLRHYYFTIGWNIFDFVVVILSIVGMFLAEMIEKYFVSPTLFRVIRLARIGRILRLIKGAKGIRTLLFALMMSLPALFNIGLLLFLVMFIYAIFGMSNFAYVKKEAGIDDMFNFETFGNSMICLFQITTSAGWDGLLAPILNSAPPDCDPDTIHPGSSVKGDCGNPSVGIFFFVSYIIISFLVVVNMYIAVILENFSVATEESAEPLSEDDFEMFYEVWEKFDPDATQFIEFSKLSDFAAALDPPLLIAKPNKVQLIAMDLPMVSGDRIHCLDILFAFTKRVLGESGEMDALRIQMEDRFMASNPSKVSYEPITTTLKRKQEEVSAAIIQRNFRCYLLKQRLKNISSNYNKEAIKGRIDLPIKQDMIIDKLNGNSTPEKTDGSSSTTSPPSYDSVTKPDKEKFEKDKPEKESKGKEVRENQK

pIC50, > 5.52:
CC(C)COc1cc(N2CCN(C(=O)C(O)Cc3ccccc3)CC2)ncn1 (stereo in doubt) [Example 5, (R)-2-hydroxy-1-(4-(6-isobutoxypyrimidin-4-yl)piperazin-1-yl)-3-phenylpropan-1-one]
CC(C)COc1cc(N2CCN(C(=O)C(NC(=O)OC(C)(C)C)c3ccccc3)CC2)ncn1 (stereo in doubt) [Example 11, (R)-tert-butyl (2-(4-(6-isobutoxypyrimidin-4-yl)piperazin-1-yl)-2-oxo-1-phenylethyl)carbamate]
Cc1ccc(C(=O)N2CCN(c3cc(OC4CCCC4)ncn3)CC2)cc1F [Example 7]
CC(C)COc1cc(N2CCN(C(=O)c3cccc4[nH]ccc34)CC2)ncn1 [Example 9, (1H-indol-4-yl)(4-(6-isobutoxypyrimidin-4-yl)piperazin-1-yl)methanone]
CC(C)COc1cc(N2CCN(C(=O)c3cc(C(F)(F)F)nn3C)CC2)ncn1 [Example 14, (4-(6-isobutoxypyrimidin-4-yl)piperazin-1-yl)(1-methyl-3-(trifluoromethyl)-1H-pyrazol-5-yl)methanone]
Cc1ccc(C(=O)N2CCN(c3cc(OC4CCC4)ncn3)CC2)cc1F [Example 16]
CC(C)COc1cc(N2CCN(C(=O)c3ccc4ccccc4n3)CC2)ncn1 [Example 18, (4-(6-isobutoxypyrimidin-4-yl)piperazin-1-yl)(quinolin-2-yl)methanone]
CC(C)COc1cc(N2CCN(C(=O)c3nc4ccccc4n3C)CC2)ncn1 [Example 23, (4-(6-isobutoxypyrimidin-4-yl)piperazin-1-yl)(1-methyl-1H-benzo[d]imidazol-2-yl)methanone]
Cn1nc(C(=O)N2CCN(c3cc(OCC(F)(F)F)ncn3)CC2)cc1C(F)(F)F [Example 29, (1-methyl-5-(trifluoromethyl)-1H-pyrazol-3-yl)(4-(6-(2,2,2-trifluoroethoxy)pyrimidin-4-yl)piperazin-1-yl)methanone]
Cn1nc(C(=O)N2CCN(c3cc(OCC(F)(F)F)ncn3)CC2)c2ccccc21 [Example 30, (1-methyl-1H-indazol-3-yl)(4-(6-(2,2,2-trifluoroethoxy)pyrimidin-4-yl)piperazin-1-yl)methanone]
CC(C)COc1cc(N2CCN(C(=O)c3cnc4ccccc4n3)CC2)ncn1 [Example 34, (4-(6-isobutoxypyrimidin-4-yl)piperazin-1-yl)(quinoxalin-2-yl)methanone]
Cn1nc(C(=O)N2CCN(c3cc(OC4CCC4)ncn3)CC2)c2ccccc21 [Example 38, (4-(6-cyclobutoxypyrimidin-4-yl)piperazin-1-yl)(1-methyl-1H-indazol-3-yl)methanone]
CC(C)COc1cc(N2CCN(C(=O)C(C)Oc3ccc(F)cc3)CC2)ncn1 (stereo not shown) [Example 48, 2-(4-fluorophenoxy)-1-(4-(6-isobutoxypyrimidin-4-yl)piperazin-1-yl)propan-1-one]
CC(C)COc1cc(N2CCN(C(=O)c3cccc(N4CCCC4)n3)CC2)ncn1 [Example 52, (4-(6-isobutoxypyrimidin-4-yl)piperazin-1-yl)(6-(pyrrolidin-1-yl)pyridin-2-yl)methanone]
CC(C)COc1cc(N2CCN(C(=O)OCc3ccccc3)CC2)ncn1 [Example 53, benzyl 4-(6-isobutoxypyrimidin-4-yl)piperazine-1-carboxylate]
CC(C)COc1cc(N2CCN(C(=O)CN3C(=O)COc4ccccc43)CC2)ncn1 [Example 57, 4-(2-(4-(6-isobutoxypyrimidin-4-yl)piperazin-1-yl)-2-oxoethyl)-2H-benzo[b][1,4]oxazin-3(4H)-one]
CC(C)COc1cc(N2CCN(C(=O)Cc3noc4ccccc34)CC2)ncn1 [Example 58, 2-(benzo[d]isoxazol-3-yl)-1-(4-(6-isobutoxypyrimidin-4-yl)piperazin-1-yl)ethanone]
CC(C)COc1cc(N2CCN(C(=O)CCN3Cc4ccccc4C3=O)CC2)ncn1 [Example 61, 2-(3-(4-(6-isobutoxypyrimidin-4-yl)piperazin-1-yl)-3-oxopropyl)isoindolin-1-one]
COCCn1c(C(=O)N2CCN(c3cc(OCC(C)C)ncn3)CC2)cc2ccccc21 [Example 62, (4-(6-isobutoxypyrimidin-4-yl)piperazin-1-yl)(1-(2-methoxyethyl)-1H-indol-2-yl)methanone]
COc1cc(C(=O)N2CCN(c3cc(OCC(F)(F)F)ncn3)CC2)nc2ccccc12 [Example 63, (4-methoxyquinolin-2-yl)(4-(6-(2,2,2-trifluoroethoxy)pyrimidin-4-yl)piperazin-1-yl)methanone]
O=C(c1n[nH]c2ccccc12)N1CCN(c2cc(OCC(F)(F)F)ncn2)CC1 [Example 68, (1H-indazol-3-yl)(4-(6-(2,2,2-trifluoroethoxy)pyrimidin-4-yl)piperazin-1-yl)methanone]
COc1cccc(C(=O)NCC(=O)N2CCN(c3cc(OCC(C)C)ncn3)CC2)n1 [Example 73, N-(2-(4-(6-isobutoxypyrimidin-4-yl)piperazin-1-yl)-2-oxoethyl)-6-methoxypicolinamide]
CC(C)COc1cc(N2CCN(C(=O)COc3cccc4ncccc34)CC2)ncn1 [Example 78, 1-(4-(6-isobutoxypyrimidin-4-yl)piperazin-1-yl)-2-(quinolin-5-yloxy)ethanone]
O=C(c1cnc2ccccc2n1)N1CCN(c2cc(OC3CCC3)ncn2)CC1 [Example 82, (4-(6-cyclobutoxypyrimidin-4-yl)piperazin-1-yl)(quinoxalin-2-yl)methanone]
O=C(c1ccc2cccc(O)c2n1)N1CCN(c2cc(OC3CCC3)ncn2)CC1 [Example 83, (4-(6-cyclobutoxypyrimidin-4-yl)piperazin-1-yl)(8-hydroxyquinolin-2-yl)methanone]
O=C(NCC(=O)N1CCN(c2cc(OC3CCC3)ncn2)CC1)c1ccccc1 [Example 85, N-(2-(4-(6-cyclobutoxypyrimidin-4-yl)piperazin-1-yl)-2-oxoethyl)benzamide]
Cc1cc(C(=O)N2CCN(c3cc(OCC(C)C)ncn3)CC2)nn1-c1ccccc1 [Example 91]
CC(C)COc1cc(N2CCN(C(=O)c3ccc(-c4cnco4)cc3)CC2)ncn1 [Example 92]
CC(C)COc1cc(N2CCN(C(=O)c3ccc(-n4cccn4)cc3)CC2)ncn1 [Example 93, (4-(1H-pyrazol-1-yl)phenyl)(4-(6-isobutoxypyrimidin-4-yl)piperazin-1-yl)methanone]
Cc1ccc(C(=O)N2C[C@@H]3C[C@H]2CN3c2cc(OCC(C)C)ncn2)cc1F [Example 94, (3-fluoro-4-methylphenyl)((1S,4S)-5-(6-isobutoxypyrimidin-4-yl)-2,5-diazabicyclo[2.2.1]heptan-2-yl)methanone]
CC(C)COc1cc(N2CCN(C(=O)COc3cccc(F)c3)CC2)ncn1 [Example 96, 2-(3-fluorophenoxy)-1-(4-(6-isobutoxypyrimidin-4-yl)piperazin-1-yl)ethanone]
CC(C)COc1cc(N2CCN(C(=O)COc3ccc(F)c(F)c3)CC2)ncn1 [Example 97, 2-(3,4-difluorophenoxy)-1-(4-(6-isobutoxypyrimidin-4-yl)piperazin-1-yl)ethanone]
CC(C)COc1cc(N2CCN(C(=O)CN3CCc4ccccc4C3=O)CC2)ncn1 [Example 98, 2-(2-(4-(6-isobutoxypyrimidin-4-yl)piperazin-1-yl)-2-oxoethyl)-3,4-dihydroisoquinolin-1(2H)-one]
CC(C)COc1cc(N2CCN(C(=O)Cc3cn(C)c4ccccc34)CC2)ncn1 [Example 101, 1-(4-(6-isobutoxypyrimidin-4-yl)piperazin-1-yl)-2-(1-methyl-1H-indol-3-yl)ethanone]
CC(C)COc1cc(N2CCN(C(=O)COCc3ccccc3)CC2)ncn1 [Example 106, 2-(benzyloxy)-1-(4-(6-isobutoxypyrimidin-4-yl)piperazin-1-yl)ethanone]
O=C(Cc1noc2ccccc12)N1CCN(c2cc(OCC(F)(F)F)ncn2)CC1 [Example 107, 2-(benzo[d]isoxazol-3-yl)-1-(4-(6-(2,2,2-trifluoroethoxy)pyrimidin-4-yl)piperazin-1-yl)ethanone]
O=C(Cc1noc2ccccc12)N1CCN(c2cc(OC3CCC3)ncn2)CC1 [Example 111, 2-(benzo[d]isoxazol-3-yl)-1-(4-(6-cyclobutoxypyrimidin-4-yl)piperazin-1-yl)ethanone]
